# Results: PubChem BioAssay (NCI)
#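 In this assay, cells in 96-well plates receive the compound at five concentrations for 48 hours. Endpoints are linearly interpolated between the surrounding concentrations. GI50 is the concentration that inhibits growth by half. TGI denotes the concentration required for complete inhibition of growth.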
# Legend:
# Experiment in all cases: NCI anticancer screen, dose series, 48 h
# HOP-62 NSCLC = test system: HOP-62 NSCLC
# MOLT-4 leukemia = test system: MOLT-4 leukemia
# UO-31 renal = test system: UO-31 renal
# CAKI-1 renal = test system: CAKI-1 renal
# SNB-19 CNS = test system: SNB-19 CNS
# RPMI-8226 leukemia = test system: RPMI-8226 leukemia
# OVCAR-8 ovarian = test system: OVCAR-8 ovarian
# TK-10 renal = test system: TK-10 renal
# SF-295 CNS = test system: SF-295 CNS
# U251 CNS = test system: U251 CNS
Compound,GI50 (HOP-62 NSCLC),TGI (HOP-62 NSCLC),GI50 (MOLT-4 leukemia),TGI (MOLT-4 leukemia),GI50 (UO-31 renal),TGI (UO-31 renal),GI50 (CAKI-1 renal),TGI (CAKI-1 renal),GI50 (SNB-19 CNS),TGI (SNB-19 CNS),GI50 (RPMI-8226 leukemia),TGI (RPMI-8226 leukemia),GI50 (OVCAR-8 ovarian),TGI (OVCAR-8 ovarian),GI50 (TK-10 renal),TGI (TK-10 renal),GI50 (SF-295 CNS),TGI (SF-295 CNS),GI50 (U251 CNS),TGI (U251 CNS)
C=CCn1c(=O)c2cnc(Nc3ccc(N4CCN(C)CC4)cc3)nc2n1-c1ccc2c(n1)[C@@](O)(CC)CC2,1.29 µM,13.8 µM,0.296 µM,1.37 µM,0.36 µM,6.96 µM,0.113 µM,20.5 µM,1.85 µM,> 100 µM,1.74 µM,14.5 µM,0.573 µM,5.62 µM,1.41 µM,49.2 µM,0.742 µM,18.7 µM,1.11 µM,35.7 µM
O=C(COc1ccc(/C=C2\Oc3ccccc3C2=O)cc1)Nc1nccs1,85.3 µM,> 100 µM,3.31 µM,19.1 µM,> 100 µM,> 100 µM,12.1 µM,> 100 µM,> 100 µM,> 100 µM,4.12 µM,> 100 µM,> 100 µM,> 100 µM,85.1 µM,> 100 µM,41.4 µM,> 100 µM,40.6 µM,> 100 µM
COc1cc2c(c(OC)c1OC)C(=O)CC(c1cccc(NC(=O)c3ccc(Br)cc3)c1)O2 (stereo not given),2.89 µM,> 100 µM,1.54 µM,4.19 µM,1.49 µM,> 100 µM,2.25 µM,> 100 µM,4.25 µM,> 100 µM,1.44 µM,3.93 µM,2.9 µM,9.19 µM,4.44 µM,> 100 µM,2.6 µM,> 100 µM,3.07 µM,> 100 µM
COc1cc(/C=N/Nc2ncnc3c2cnn3C(C)C)ccc1O,6.5 µM,> 25 µM,6.53 µM,> 20.7 µM,3.56 µM,17.3 µM,6.43 µM,> 25 µM,17 µM,> 25 µM,9.76 µM,> 17.8 µM,6.37 µM,> 25 µM,8.3 µM,21.3 µM,9.41 µM,> 25 µM,8.11 µM,> 25 µM
O=C(/C=C/c1ccccc1)c1c[nH]c2ccccc2c1=O,3.5 µM,12.2 µM,3.16 µM,20.8 µM,3.26 µM,14.7 µM,1.97 µM,6.22 µM,4.68 µM,20.5 µM,2.23 µM,7.62 µM,2.23 µM,6.82 µM,2.08 µM,5.37 µM,2.31 µM,7.18 µM,2.29 µM,11 µM
C=C1C(=O)O[C@H]2[C@H]1CC/C(Cn1cc(CNCCc3c[nH]c4ccc(Cl)cc34)nn1)=C\CC[C@@]1(C)O[C@@H]21,67.5 µM,> 100 µM,2.54 µM,6.56 µM,6.23 µM,19.4 µM,15.2 µM,28.7 µM,8.69 µM,32.4 µM,2.36 µM,5.55 µM,11.8 µM,29.1 µM,2.29 µM,7 µM,30.9 µM,> 100 µM,7.59 µM,20.9 µM
COc1ccc(-c2nn(-c3ccc(NC(=O)c4ccc(Cl)c(C(F)(F)F)c4)cc3)cc2-c2ccncc2)cc1Cl,0.423 µM,4.88 µM,0.388 µM,> 100 µM,0.566 µM,> 24.7 µM,0.335 µM,2.08 µM,1.96 µM,> 100 µM,0.39 µM,> 100 µM,2.37 µM,> 100 µM,1.71 µM,> 32.8 µM,0.217 µM,0.79 µM,0.408 µM,7.82 µM
Cc1ccc(NC(=O)CC/C(CC(=O)C(C)(C)C)=N/NC(=O)C(N)=O)cc1C,–,> 100 µM,–,> 100 µM,–,> 100 µM,–,> 100 µM,–,> 100 µM,–,> 100 µM,–,> 100 µM,–,> 100 µM,–,> 100 µM,–,> 100 µM
Cc1oc2nc[nH]c(=O)c2c1C(=O)/C=C/c1ccc(Cl)cc1,2.83 µM,12.6 µM,2.75 µM,9.98 µM,1.09 µM,11 µM,3.06 µM,22.8 µM,3.28 µM,13.7 µM,1.66 µM,5.16 µM,2.67 µM,31.9 µM,5.09 µM,13.6 µM,4.5 µM,16 µM,1.97 µM,5.01 µM
CC1(C)CCC[C@@]2(C)C1C[C@H](O)[C@@]1(C)O[C@@](C)([C@H](O)CO)CCC21 (stereo not given in full),–,> 100 µM,–,62 µM,–,85.3 µM,–,> 100 µM,–,> 100 µM,–,45.2 µM,–,> 100 µM,–,> 100 µM,–,> 100 µM,–,> 100 µM
CN1C(OCc2ccccc2)c2c(ccc3c2OCO3)C2C=Cc3cc4c(cc3C21)OCO4 (stereo not given),–,2.96 µM,–,0.678 µM,–,2.59 µM,–,2.2 µM,–,3.06 µM,–,0.584 µM,–,1.05 µM,–,3.3 µM,–,2.81 µM,–,2.84 µM
CC(N=C(N)N)C(=O)O (stereo not given),–,> 100 µM,–,> 100 µM,–,> 100 µM,–,> 100 µM,–,> 100 µM,–,> 100 µM,–,> 100 µM,–,> 100 µM,–,> 100 µM,–,> 100 µM
O=C1c2cccc3cc([N+](=O)[O-])cc(c23)C(=O)N1NC1=NCCN1,–,> 100 µM,–,> 100 µM,–,> 100 µM,–,> 100 µM,–,> 100 µM,–,> 100 µM,–,> 100 µM,–,> 100 µM,–,> 100 µM,–,> 100 µM
CC(=O)Nc1ccc(-c2c3nc(c(-c4cc5ccccc5[n+](C)c4)c4ccc([nH]4)c(-c4ccc(NC(C)=O)cc4)c4nc(c(-c5cc6ccccc6[n+](C)c5)c5ccc2[nH]5)C=C4)C=C3)cc1,7.3 µM,19.5 µM,> 50 µM,> 50 µM,10.6 µM,33.6 µM,4.81 µM,29.7 µM,10.9 µM,49.1 µM,21.6 µM,> 50 µM,15.7 µM,> 50 µM,15.2 µM,44.6 µM,6.65 µM,22.5 µM,13.5 µM,> 50 µM
